According to patent publication US20240307426A1, “USE OF SGLT-2 INHIBITORS FOR THE PREVENTION AND/OR TREATMENT OF RENAL DISEASES IN NON-HUMAN MAMMALS” (BOEHRINGER INGELHEIM VETMEDICA GMBH, priority 2021, published 2024):

Legend:
[1] = test system: client owned cats with CKD (IRIS stage 3); test: Exploratory clinical field study - cats (Example 1); format: in vivo, cat; details: CKD IRIS stage 3, 0.1 mg/kg bodyweight orally once daily
Description: (§1) Client owned patients diagnosed with CKD (IRIS stage 3) diagnosed via physical examination and biomarker levels are orally treated once daily with velagliflozin 0.1 mg/kg bodyweight. During the study period the body weight, body condition score, biomarker levels (creatinine and SDMA), presence of concomitant conditions and need for further medication are examined on regular basis during the visits at the site by the investigator. The parameters examined are creatinine and SDMA levels, proteinuria, blood pressure, quality of life, and hydration status. Additionally, variables as the delayed onset of renal failure, survival time of the cat patients, IRiS stage progression and renal related mortality and/or morbidity are observed.

[2] = test system: client owned dogs with CKD; test: Exploratory clinical field trial in client owned dogs with CKD (Example 4); format: in vivo, dog; details: 0.05 mg/kg bodyweight orally once daily
Description: as §1, with “CKD” for “CKD (IRIS stage 3)”, “velagliflozin 0.05” for “velagliflozin 0.1”, “SDMA), proteinuria,” for “SDMA),”, “blood pressure” for “blood pressure, quality of life,”, “the dog” for “the cat”, “patients, IRIS” for “patients, IRiS”

[3] = test system: client owned dogs with CKD (IRIS stage 3); test: Exploratory clinical field study - dogs (Example 2); format: in vivo, dog; details: CKD IRIS stage 3, 0.3 mg/kg bodyweight orally once daily
Description: as §1, with “velagliflozin 0.3” for “velagliflozin 0.1”, “SDMA), proteinuria,” for “SDMA),”, “blood pressure” for “blood pressure, quality of life,”, “the dog” for “the cat”

N#Cc1ccc([C@@H]2O[C@H](CO)[C@@H](O)[C@H](O)[C@H]2O)cc1Cc1ccc(C2CC2)cc1 [velagliflozin, Velagliflozin]
beneficial effect on renal function: effect on renal function [1] | effect on renal function [2] | effect on renal function [3]
delay in progression of the disease: progression of the disease [1] | progression of the disease [2] | progression of the disease [3]
